Experiments:
Assay type in all cases: in vivo
[1] = system: barnyardgrass (Echinochloa crus-galli); experiment: Test G Pre-Emergence Protocol; settings: Echinochloa crus-galli, pre-emergence, 312 h, evaluated after 13 days; for pest or weed control at 15.625 g/ha: 15.625 g ai/ha, read-out: Barnyard grass damage rating (100=total damage to plant; 0=no damage to plant); for pest or weed control at 62.5 g/ha: 62.5 g ai/ha, 100=total damage to plant, 0=no damage to plant, read-out: plant damage rating, Barnyardgrass; for pest or weed control at 250 g/ha: 250 g ai/ha, read-out: Barnyardgrass damage rating (100=total damage to plant; 0=no damage to plant)
How it was run: (§1)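 Visual injury (0–100) at day 13 after a single pre-emergence spray. Rates: 15.625, 62.5, 250 g/ha in acetone–water 50:50 with 0.5% Tween 20. Growth conditions: 24/16° C, 14 h light, 65% humidity.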

corn (Zea mays) [2] = experiment: Test G Pre-Emergence Protocol; settings: Zea mays, pre-emergence, 312 h, evaluated after 13 days; for plant injury at 15.625 g/ha: 15.625 g ai/ha; for plant injury at 15.625 g/ha / plant injury at 250 g/ha: read-out: Corn damage rating (100=total damage to plant; 0=no damage to plant); for plant injury at 62.5 g/ha: 62.5 g ai/ha, 100=total damage to plant, 0=no damage to plant, read-out: plant damage rating, Corn; for plant injury at 250 g/ha: 250 g ai/ha
How it was run: as §1

[3] = system: giant foxtail (Setaria faberi); experiment: Test G Pre-Emergence Protocol; settings: Setaria faberi, pre-emergence, 312 h, evaluated after 13 days; for pest or weed control at 15.625 g/ha: 15.625 g ai/ha; for pest or weed control at 15.625 g/ha / pest or weed control at 250 g/ha: read-out: Foxtail, Giant damage rating (100=total damage to plant; 0=no damage to plant); for pest or weed control at 62.5 g/ha: 62.5 g ai/ha, 100=total damage to plant, 0=no damage to plant, read-out: plant damage rating, Foxtail, Giant; for pest or weed control at 250 g/ha: 250 g ai/ha
How it was run: as §1

[4] = system: ivy-leaved morning glory (Ipomoea hederacea); experiment: Test G Pre-Emergence Protocol; settings: Ipomoea, pre-emergence, 312 h, evaluated after 13 days; for pest or weed control at 15.625 g/ha: 15.625 g ai/ha, read-out: Morning-glory, Ivy-leaved damage rating (100=total damage to plant; 0=no damage to plant); for pest or weed control at 62.5 g/ha: 62.5 g ai/ha, 100=total damage to plant, 0=no damage to plant, read-out: plant damage rating, Morningglory, Ivy-leaved; for pest or weed control at 250 g/ha: 250 g ai/ha, read-out: Morningglory, Ivy-leaved damage rating (100=total damage to plant; 0=no damage to plant)
How it was run: as §1

[5] = system: redroot pigweed (Amaranthus retroflexus); experiment: Test G Pre-Emergence Protocol; settings: Amaranthus retroflexus, pre-emergence, 312 h, evaluated after 13 days; for pest or weed control at 15.625 g/ha: 15.625 g ai/ha; for pest or weed control at 15.625 g/ha / pest or weed control at 250 g/ha: read-out: Pigweed, Redroot damage rating (100=total damage to plant; 0=no damage to plant); for pest or weed control at 62.5 g/ha: 62.5 g ai/ha, 100=total damage to plant, 0=no damage to plant, read-out: plant damage rating, Pigweed, Redroot; for pest or weed control at 250 g/ha: 250 g ai/ha
How it was run: as §1

[6] = system: velvetleaf (Abutilon theophrasti); experiment: Test G Pre-Emergence Protocol; settings: Abutilon theophrasti, pre-emergence, 312 h, evaluated after 13 days; for pest or weed control at 15.625 g/ha: 15.625 g ai/ha; for pest or weed control at 15.625 g/ha / pest or weed control at 250 g/ha: read-out: Velvetleaf damage rating (100=total damage to plant; 0=no damage to plant); for pest or weed control at 62.5 g/ha: 62.5 g ai/ha, 100=total damage to plant, 0=no damage to plant, read-out: plant damage rating, Velvetleaf; for pest or weed control at 250 g/ha: 250 g ai/ha
How it was run: as §1

[7] = system: barnyardgrass (Echinochloa crus-galli); experiment: Test G Post-Emergence Protocol; settings: Echinochloa crus-galli, post-emergence, 312 h; for pest or weed control at 15.625 g/ha: 15.625 g ai/ha, evaluated after 13 days (100=total damage to plant; 0=no damage to plant), read-out: Barnyardgrass damage rating; for pest or weed control at 62.5 g/ha: 62.5 g ai/ha, read-out: Barnyardgrass damage rating (100=total damage to plant; 0=no damage to plant); for pest or weed control at 62.5 g/ha / pest or weed control at 250 g/ha: evaluated after 13 days; for pest or weed control at 250 g/ha: 250 g ai/ha, read-out: damage to plant, Barnyardgrass (100=total damage to plant; 0=no damage to plant)
How it was run: (§2)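 Seedlings grown 8 days in soil in a glasshouse (24/16 °C day/night, 14 h light, 65% humidity) were sprayed post-emergence with compound in acetone/water 50:50 plus 0.5% Tween 20 at 15.625, 62.5 or 250 g/ha. Damage was scored after 13 days on a 0–100 scale (100 = total damage).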

corn (Zea mays) [8] = experiment: Test G Post-Emergence Protocol; settings: Zea mays, post-emergence, 312 h; for plant injury at 15.625 g/ha: 15.625 g ai/ha, evaluated after 13 days (100=total damage to plant; 0=no damage to plant), read-out: Corn damage rating; for plant injury at 62.5 g/ha: 62.5 g ai/ha, read-out: Corn damage rating (100=total damage to plant; 0=no damage to plant); for plant injury at 62.5 g/ha / plant injury at 250 g/ha: evaluated after 13 days; for plant injury at 250 g/ha: 250 g ai/ha, read-out: damage to plant, Corn (100=total damage to plant; 0=no damage to plant)
How it was run: as §2

[9] = system: giant foxtail (Setaria faberi); experiment: Test G Post-Emergence Protocol; settings: Setaria faberi, post-emergence, 312 h; for pest or weed control at 15.625 g/ha: 15.625 g ai/ha, evaluated after 13 days (100=total damage to plant; 0=no damage to plant), read-out: Foxtail, Giant damage rating; for pest or weed control at 62.5 g/ha: 62.5 g ai/ha, read-out: Foxtail, Giant damage rating (100=total damage to plant; 0=no damage to plant); for pest or weed control at 62.5 g/ha / pest or weed control at 250 g/ha: evaluated after 13 days; for pest or weed control at 250 g/ha: 250 g ai/ha, read-out: damage to plant, Foxtail, Giant (100=total damage to plant; 0=no damage to plant)
How it was run: as §2

[10] = system: ivy-leaved morning glory (Ipomoea hederacea); experiment: Test G Post-Emergence Protocol; settings: Ipomoea, post-emergence, 312 h; for pest or weed control at 15.625 g/ha: 15.625 g ai/ha, evaluated after 13 days (100=total damage to plant; 0=no damage to plant), read-out: Morningglory, Ivy-leaved damage rating; for pest or weed control at 62.5 g/ha: 62.5 g ai/ha, read-out: Morningglory, Ivy-leaved damage rating (100=total damage to plant; 0=no damage to plant); for pest or weed control at 62.5 g/ha / pest or weed control at 250 g/ha: evaluated after 13 days; for pest or weed control at 250 g/ha: 250 g ai/ha, read-out: damage to plant, Morningglory, Ivy-leaved (100=total damage to plant; 0=no damage to plant)
How it was run: as §2

[11] = system: redroot pigweed (Amaranthus retroflexus); experiment: Test G Post-Emergence Protocol; settings: Amaranthus retroflexus, post-emergence, 312 h; for pest or weed control at 15.625 g/ha: 15.625 g ai/ha, evaluated after 13 days (100=total damage to plant; 0=no damage to plant), read-out: Pigweed, Redroot damage rating; for pest or weed control at 62.5 g/ha: 62.5 g ai/ha, read-out: Pigweed, Redroot damage rating (100=total damage to plant; 0=no damage to plant); for pest or weed control at 62.5 g/ha / pest or weed control at 250 g/ha: evaluated after 13 days; for pest or weed control at 250 g/ha: 250 g ai/ha, read-out: damage to plant, Pigweed, Redroot (100=total damage to plant; 0=no damage to plant)
How it was run: as §2

[12] = system: velvetleaf (Abutilon theophrasti); experiment: Test G Post-Emergence Protocol; settings: Abutilon theophrasti, post-emergence, 312 h; for pest or weed control at 15.625 g/ha: 15.625 g ai/ha, evaluated after 13 days (100=total damage to plant; 0=no damage to plant), read-out: Velvetleaf damage rating; for pest or weed control at 62.5 g/ha: 62.5 g ai/ha, read-out: Velvetleaf damage rating (100=total damage to plant; 0=no damage to plant); for pest or weed control at 62.5 g/ha / pest or weed control at 250 g/ha: evaluated after 13 days; for pest or weed control at 250 g/ha: 250 g ai/ha, read-out: damage to plant, Velvetleaf (100=total damage to plant; 0=no damage to plant)
How it was run: as §2

Compound | pest or weed control at 15.625 g/ha [1] | pest or weed control at 62.5 g/ha [1] | pest or weed control at 250 g/ha [1] | plant injury at 15.625 g/ha (corn (Zea mays) [2]) | plant injury at 62.5 g/ha (corn (Zea mays) [2]) | plant injury at 250 g/ha (corn (Zea mays) [2]) | pest or weed control at 15.625 g/ha [3] | pest or weed control at 62.5 g/ha [3] | pest or weed control at 250 g/ha [3] | pest or weed control at 15.625 g/ha [4] | pest or weed control at 62.5 g/ha [4] | pest or weed control at 250 g/ha [4] | pest or weed control at 15.625 g/ha [5] | pest or weed control at 62.5 g/ha [5] | pest or weed control at 250 g/ha [5] | pest or weed control at 15.625 g/ha [6] | pest or weed control at 62.5 g/ha [6] | pest or weed control at 250 g/ha [6] | pest or weed control at 15.625 g/ha [7] | pest or weed control at 62.5 g/ha [7] | other results
COc1nccc(NC(=O)[C@@H]2C(=O)N(C)C[C@H]2c2ccc(C(F)(F)F)cc2)n1 (racemic) [Compound 1640] | 0% | 0% | 0% | 0% | 0% | 0% | 0% | 0% | 0% | 0% | 0% | 0% | 0% | 0% | 0% | 0% | 0% | 0% | 0% | 0% | pest or weed control at 250 g/ha [7]: 0%; plant injury at 15.625 g/ha (corn (Zea mays) [8]): 0%; plant injury at 62.5 g/ha (corn (Zea mays) [8]): 0%; plant injury at 250 g/ha (corn (Zea mays) [8]): 0%; pest or weed control at 15.625 g/ha [9]: 0%; pest or weed control at 62.5 g/ha [9]: 0%; pest or weed control at 250 g/ha [9]: 0%; pest or weed control at 15.625 g/ha [10]: 0%; pest or weed control at 62.5 g/ha [10]: 0%; pest or weed control at 250 g/ha [10]: 0%; pest or weed control at 15.625 g/ha [11]: 0%; pest or weed control at 62.5 g/ha [11]: 0%; pest or weed control at 250 g/ha [11]: 0%; pest or weed control at 15.625 g/ha [12]: 0%; pest or weed control at 62.5 g/ha [12]: 0%; pest or weed control at 250 g/ha [12]: 0%
CN1C[C@@H](c2ccc(C(F)(F)F)cc2)[C@H](C(=O)Nc2cccc(Cl)c2C#N)C1=O (racemic) [Compound 1645] | 0% | 40% | 50% | 0% | 0% | 0% | 0% | 30% | 60% | 0% | 0% | 0% | 0% | 10% | 10% | 0% | 0% | 10% | 0% | 20% | pest or weed control at 250 g/ha [7]: 70%; plant injury at 15.625 g/ha (corn (Zea mays) [8]): 0%; plant injury at 62.5 g/ha (corn (Zea mays) [8]): 0%; plant injury at 250 g/ha (corn (Zea mays) [8]): 0%; pest or weed control at 15.625 g/ha [9]: 0%; pest or weed control at 62.5 g/ha [9]: 70%; pest or weed control at 250 g/ha [9]: 80%; pest or weed control at 15.625 g/ha [10]: 0%; pest or weed control at 62.5 g/ha [10]: 0%; pest or weed control at 250 g/ha [10]: 0%; pest or weed control at 15.625 g/ha [11]: 0%; pest or weed control at 62.5 g/ha [11]: 40%; pest or weed control at 250 g/ha [11]: 40%; pest or weed control at 15.625 g/ha [12]: 0%; pest or weed control at 62.5 g/ha [12]: 0%; pest or weed control at 250 g/ha [12]: 0%

— patent publication US12077503B2, “Substituted cyclic amides and their use as herbicides” (FMC CORPORATION, priority 2015, dated 2024)
